Measured values as given in patent publication US20160222014A1, “COMPOUNDS FOR REGULATING FAK AND/OR SRC PATHWAYS” (ASANA BIOSCIENCES, LLC, priority 2013, published 2016).

Key:
Phospho Src(Y416) = target: T1, Phospho Src(Y416) (Homo sapiens, UniProt P12931); test: Phospho Src(Y416) Sandwich ELISA; assay type: cell-based; details: Panc1; read-out: pSrc EC50 (μM) Panc1
T1 construct: endogenous in cells; host or cells: Panc1
Description: E. Phospho Src(Y416) Sandwich ELISA
Phospho Src(Y416) Sandwich ELISA kit was obtained from Cell Signaling Tech.
(i) Reagent Preparation • 1. All microwell strips were brought to rt before use. • 2. 1× Wash Buffer was prepared by diluting 20× Wash Buffer (included in each PathScan® Sandwich ELISA Kit) in MilliQ® water or equivalently purified water. • 3. 1× Cell Lysis Buffer from CST #9803: 20 mM Tris (pH 7.5), 150 mM NaCl, 1 mM ethylene diamine tetraacetate (EDTA), 1 mM ethylene glycol-bis(2-aminoethyl)-N,N,N′,N′-tetraacetic acid (EGTA), 1% Triton™ X-100, 2.5 mM sodium pyrophosphate, 1 mM b-glycerophosphate, 1 mM Na3VO4, 1 μg/mL leupeptin. This buffer was stored at 4° C. for short-term use (1-2 weeks).
(ii) Preparing Cell Lysates • 1. The media was aspirated. The cells were treated by adding fresh media containing inhibitor for 1 h. The compound of Example 214 was used as reference. • 2. The cells were harvested under non-denaturing conditions by removing media and rinsing cells once with ice-cold PBS. • 3. PBS was removed, 0.5 mL ice-cold 1× Cell Lysis Buffer plus 1 mM phenylmethylsulfonylfluoride (PMSF) was added to each plate (10 cm in diameter) and the plate incubated on ice for 5 min. • 4. The cells were scraped off of the plate, transferred to an appropriate tube, and kept on ice. • 5. The lysates were sonicated on ice. • 6. Microcentrifugation was performed for 10 min at 4° C. and the supernatant transferred to a new tube. The supernatant was the cell lysate and was stored at −80° C. in single-use aliquots.
(iii) Test Procedure • 1. After the microwell strips reached rt, the required number of microwells were broken off. The microwells were placed in the strip holder. Unused microwells were resealed and stored at 4° C. immediately. • 2. 100 μL of Sample Diluent (supplied in each PathScan® Sandwich ELISA Kit, blue color) was added to a micro centrifuge tube. 100 μL of cell lysate was transferred into the tube and vortexed for a few seconds. […] Individual data sheets for each kit provided information regarding an appropriate dilution factor for lysates and kit assay results. However, dilution factors were titrated when specific cell lysates are used. • 3. 100 μL of each diluted cell lysate were added to the appropriate well. It was then sealed with tape and pressed firmly onto top of microwells. The plate was incubated for 2 h at 37° C. Alternatively, the plate was incubated overnight at 4° C., which gave the best detection of target protein. • 4. The tape was gently removed and the wells washed: • a. The plate contents were discarded into a receptacle. • b. Each well was washed 4 times with 1× Wash Buffer, 200 μL. • c. For each wash, plates were struck on fresh towels hard enough to remove the residual solution in each well, but wells were not allowed to completely dry at any time. • d. The underside of all wells was cleaned with a lint-free tissue. • 5. 100 μL of Detection Antibody (green color) was added to each well, sealed with tape and the plate incubated for 1 h at 37° C. • 6. The wash procedure was repeated as in Step 4. • 7. 100 μL of HRP-linked secondary antibody (red color) was added to each well, sealed with tape and the plate incubated plate for 30 min at 37° C. • 8. The wash procedure was repeated as in Step 4. • 9. 100 μL of TMB Substrate was added to each well, sealed with tape and the plate incubated for 10 min at 37° C. or 30 min at 25° C. • 10. 100 μL of STOP Solution was added to each well and shaken gently for a few seconds. Initial color of positive reaction was blue, which changed to yellow upon addition of STOP Solution. • 11. The results were read. • a. Visual Determination—read within 30 min after adding STOP Solution. • b. Spectrophotometric Determination—the underside of wells were wiped with a lint-free tissue and absorbance read at 450 nm within 30 min after adding STOP Solution.

AURKB (Aurora B) enzyme = target: T2, AURKB (Aurora B) enzyme (Homo sapiens, UniProt Q96GD4); test: Aurora B HTRF assay; assay type: biochemical; details: read-out: AuroraB IC50
T2 construct: purchased Invitrogen PVR 130
T2 sequence (Q96GD4 whole entry): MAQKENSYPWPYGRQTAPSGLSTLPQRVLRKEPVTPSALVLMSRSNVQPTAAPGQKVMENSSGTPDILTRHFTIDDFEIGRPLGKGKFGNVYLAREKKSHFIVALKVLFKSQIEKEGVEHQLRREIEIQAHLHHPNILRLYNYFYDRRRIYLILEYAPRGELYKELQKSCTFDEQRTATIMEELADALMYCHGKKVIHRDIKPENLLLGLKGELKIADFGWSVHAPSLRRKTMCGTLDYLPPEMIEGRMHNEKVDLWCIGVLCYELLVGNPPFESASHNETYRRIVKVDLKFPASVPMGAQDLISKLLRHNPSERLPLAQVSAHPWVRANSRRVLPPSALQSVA
Procedure, shortened: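 Enzyme (5 nM final) and ULight-labelled PLK Ser137 peptide (50 nM) reacted 1 h at room temperature; a 30 μM final component was also present. Detection used EDTA-containing buffer with europium anti-phospho-PLK(Ser137) antibody at 2 nM, 1 h, then time-resolved FRET readout.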

JAK2 = JAK2 (Homo sapiens, UniProt O60674); test: JAK2 biochemical potency; details: read-out: JAK2 HTRF IC50
JAK2, sequence (O60674 whole entry, species assumed): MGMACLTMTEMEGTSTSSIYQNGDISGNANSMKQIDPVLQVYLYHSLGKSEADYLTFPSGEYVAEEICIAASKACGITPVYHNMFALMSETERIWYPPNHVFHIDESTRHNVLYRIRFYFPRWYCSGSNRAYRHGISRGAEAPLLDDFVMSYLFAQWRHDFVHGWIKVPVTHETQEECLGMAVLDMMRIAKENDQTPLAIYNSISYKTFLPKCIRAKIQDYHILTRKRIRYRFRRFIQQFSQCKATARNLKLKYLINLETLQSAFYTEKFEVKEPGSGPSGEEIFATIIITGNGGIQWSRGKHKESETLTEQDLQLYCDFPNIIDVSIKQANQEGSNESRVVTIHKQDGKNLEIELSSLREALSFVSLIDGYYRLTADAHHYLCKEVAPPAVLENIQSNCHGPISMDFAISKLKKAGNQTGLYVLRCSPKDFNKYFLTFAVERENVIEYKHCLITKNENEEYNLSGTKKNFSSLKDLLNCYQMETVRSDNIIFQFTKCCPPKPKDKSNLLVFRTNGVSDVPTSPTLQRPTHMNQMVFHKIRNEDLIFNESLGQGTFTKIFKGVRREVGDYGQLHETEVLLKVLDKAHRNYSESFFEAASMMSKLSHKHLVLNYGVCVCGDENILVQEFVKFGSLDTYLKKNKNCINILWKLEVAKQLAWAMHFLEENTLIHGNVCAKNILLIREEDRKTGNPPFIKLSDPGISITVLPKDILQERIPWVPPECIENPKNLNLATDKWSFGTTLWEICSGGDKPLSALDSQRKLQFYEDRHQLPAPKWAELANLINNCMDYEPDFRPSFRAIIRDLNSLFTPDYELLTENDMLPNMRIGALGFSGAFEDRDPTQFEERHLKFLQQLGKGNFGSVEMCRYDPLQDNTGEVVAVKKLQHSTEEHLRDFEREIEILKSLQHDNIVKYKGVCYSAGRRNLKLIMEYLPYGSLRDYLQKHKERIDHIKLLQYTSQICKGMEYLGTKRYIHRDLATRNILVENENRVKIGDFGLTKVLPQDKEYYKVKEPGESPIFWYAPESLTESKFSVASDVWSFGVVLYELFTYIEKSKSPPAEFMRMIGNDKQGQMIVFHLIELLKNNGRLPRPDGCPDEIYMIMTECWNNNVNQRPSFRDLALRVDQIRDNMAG

[1] = target: T3, FAK phosphorylated at Y397 in HEK-FAK cell line overexpressing human FL FAK protein (Homo sapiens, UniProt Q05397); test: Cell based assay, Phospho-FAK ELISA; details: HEK stb; read-out: pFAK EC50 (μM) HEK stb
T3 construct: expressed in transfected cells
T3 sequence (Q05397 whole entry): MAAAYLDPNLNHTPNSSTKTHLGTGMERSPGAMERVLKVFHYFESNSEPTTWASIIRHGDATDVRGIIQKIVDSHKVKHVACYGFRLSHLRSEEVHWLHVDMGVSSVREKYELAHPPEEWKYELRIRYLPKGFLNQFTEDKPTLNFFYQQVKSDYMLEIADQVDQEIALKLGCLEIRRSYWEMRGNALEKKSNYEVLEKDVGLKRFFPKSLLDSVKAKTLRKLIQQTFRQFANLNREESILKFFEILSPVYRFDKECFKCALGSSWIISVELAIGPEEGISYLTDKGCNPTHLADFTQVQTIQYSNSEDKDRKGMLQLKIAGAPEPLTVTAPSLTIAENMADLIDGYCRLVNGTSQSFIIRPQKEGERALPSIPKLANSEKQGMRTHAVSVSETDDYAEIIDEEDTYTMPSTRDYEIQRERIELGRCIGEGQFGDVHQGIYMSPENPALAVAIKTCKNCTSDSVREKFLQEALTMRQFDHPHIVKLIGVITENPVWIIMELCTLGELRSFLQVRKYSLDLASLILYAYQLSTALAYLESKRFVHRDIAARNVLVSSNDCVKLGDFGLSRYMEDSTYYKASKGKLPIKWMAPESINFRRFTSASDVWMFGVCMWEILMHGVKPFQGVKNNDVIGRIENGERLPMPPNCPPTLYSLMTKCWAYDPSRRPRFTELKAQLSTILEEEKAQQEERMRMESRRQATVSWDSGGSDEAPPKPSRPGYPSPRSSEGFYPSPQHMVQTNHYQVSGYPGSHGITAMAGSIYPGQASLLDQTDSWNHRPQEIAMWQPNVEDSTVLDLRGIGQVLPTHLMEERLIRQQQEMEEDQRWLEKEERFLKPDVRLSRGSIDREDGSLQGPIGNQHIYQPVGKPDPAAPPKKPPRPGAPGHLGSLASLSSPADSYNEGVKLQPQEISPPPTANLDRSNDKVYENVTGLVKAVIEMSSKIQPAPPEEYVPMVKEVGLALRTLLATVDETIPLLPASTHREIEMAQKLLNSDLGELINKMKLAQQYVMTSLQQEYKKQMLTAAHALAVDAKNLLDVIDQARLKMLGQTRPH
Procedure, shortened: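 Stable HEK293 line overexpressing full-length human FAK, kept under 0.8 mg/mL Zeocin. In lysates, FAK Y397 autophosphorylation was measured by sandwich ELISA: total-FAK capture antibody, biotinylated pY397-specific detection antibody, streptavidin-HRP with TMB substrate.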

recombinant human FAK1 = target: T4, recombinant human FAK1 (Homo sapiens, UniProt Q05397); test: FAK1 HTRF assay; assay type: biochemical
T4 construct: fused on or other part: N-terminal 6xHis tag
T4 sequence (Q05397 422-680 limits assumed): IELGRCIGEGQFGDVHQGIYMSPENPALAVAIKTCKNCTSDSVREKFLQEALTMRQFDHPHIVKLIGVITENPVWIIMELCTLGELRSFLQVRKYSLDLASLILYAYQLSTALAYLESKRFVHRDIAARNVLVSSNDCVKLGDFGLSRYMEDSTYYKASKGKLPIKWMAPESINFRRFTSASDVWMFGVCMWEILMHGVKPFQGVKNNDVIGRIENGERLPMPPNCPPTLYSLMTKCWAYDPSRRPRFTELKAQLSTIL
Procedure, shortened: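 IC50 values derive from HTRF % inhibition (ratio 665/620 nm, Eu–anti-phosphotyrosine 0.1 nM, SA-APC 12 nM). The kinase step ran 45 min at room temperature, pairing 10 nM His-FAK1(692–end) from baculovirus with 0.5 μM gastrin Tyr87 biotin-peptide and a reagent at 10 μM final, pH 7.4. Compound dilutions began at 10 μM.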

[2] = test system: panel of pancreatic cancer cell lines; details: read-out: anti-proliferative IC50; cited from earlier work
[3] = test system: FAK autophosphorylation at Tyrosine397 and Akt phosphorylation at Serine473; details: 4T1 breast carcinoma; cited from earlier work
[4] = test system: 4T1 orthotopic breast carcinoma; details: cited from earlier work
[5] = test system: MIA PaCa-2 human pancreatic tumor; details: oral administration, cited from earlier work
[6] = test system: prostate and pancreatic cancer xenograft; details: prostate and pancreatic cancer xenograft models; cited from earlier work
[7] = test system: cell proliferation and apoptosis; details: cited from earlier work
cell migration = details: concomitant with inhibition of focal adhesion turnover; cited from earlier work
[8] = 100 mg/kg intraperitoneal, i.p.; cited from earlier work
[9] = test system: tumor FAK Tyr-397 phosphorylation; details: 100 mg/kg intraperitoneal, i.p.; cited from earlier work
[10] = test system: CSC population in 2 human breast cancer cell lines; details: 2 human breast cancer cell lines in vitro and in xenografts; cited from earlier work

T1 sequence (P12931 whole entry): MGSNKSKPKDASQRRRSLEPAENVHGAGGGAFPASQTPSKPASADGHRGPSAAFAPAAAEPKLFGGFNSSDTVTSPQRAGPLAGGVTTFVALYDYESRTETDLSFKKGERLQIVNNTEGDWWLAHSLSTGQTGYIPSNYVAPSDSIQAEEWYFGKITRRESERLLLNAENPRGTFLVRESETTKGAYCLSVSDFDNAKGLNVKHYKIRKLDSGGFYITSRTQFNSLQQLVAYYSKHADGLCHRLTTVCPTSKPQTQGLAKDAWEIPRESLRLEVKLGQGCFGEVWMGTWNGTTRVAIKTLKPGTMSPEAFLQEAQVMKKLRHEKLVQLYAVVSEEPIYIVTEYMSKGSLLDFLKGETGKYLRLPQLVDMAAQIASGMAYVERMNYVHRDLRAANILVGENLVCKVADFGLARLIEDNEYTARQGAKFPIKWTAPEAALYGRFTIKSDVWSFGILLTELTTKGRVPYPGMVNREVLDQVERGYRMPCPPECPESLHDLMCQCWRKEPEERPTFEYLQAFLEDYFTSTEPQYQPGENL

Structure (SMILES)	EC50 (Phospho Src(Y416)) [µM]	IC50 (JAK2) [nM]	EC50 [1] [µM]	also measured
O=C1CCc2cc(Nc3ncc4ccn(Cc5ccccc5OC(F)F)c4n3)ccc2N1 [Example 18]	> 1	< 20		IC50 (AURKB (Aurora B) enzyme): < 20 nM
O=C1CCc2cc(Nc3ncc4ccn(S(=O)(=O)c5ccccc5OC(F)(F)F)c4n3)ccc2N1 [Example 43]	> 1	< 20		
CN(c1ncccc1Cn1ccc2cnc(Nc3ccc(N4CCOCC4)cc3)nc21)S(C)(=O)=O [Example 76]	> 1	< 20		
CN(c1ncccc1Cn1ccc2cnc(Nc3cccc(NC(=O)C(C)(C)O)c3)nc21)S(C)(=O)=O [Example 79]	> 1	< 20		
CN(c1ncccc1Cn1ccc2cnc(Nc3cccc(N4CCNCC4)c3)nc21)S(C)(=O)=O [Example 176]	> 1	< 20		IC50 (AURKB (Aurora B) enzyme): < 20 nM
N#Cc1ccccc1S(=O)(=O)n1ncc2cnc(Nc3ccc(N4CCNCC4)cc3)cc21 [Example 191]	> 1	> 1000	> 1	
CN(c1ncccc1Cn1ccc2cnc(Nc3ccc(N4CCNCC4)c(F)c3)nc21)S(C)(=O)=O [Example 195]	< 0.02	< 20	> 1	
CC(=O)Nc1ccc(Nc2ncc3ccn(S(=O)(=O)c4cccc5cccnc45)c3n2)cc1 [Example 307]	> 1	< 20		IC50 (recombinant human FAK1): < 20 nM; IC50 (AURKB (Aurora B) enzyme): < 20 nM
O=S(=O)(c1cccc2cccnc12)n1ccc2cnc(Nc3ccc(N4CCC(O)CC4)cc3)nc21 [Example 310]	> 1	< 20		IC50 (recombinant human FAK1): < 20 nM; IC50 (AURKB (Aurora B) enzyme): < 20 nM
CN(c1ccccc1Cn1ccc2cnc(Nc3ccc(C(=O)NCC(C)(C)O)c(F)c3)nc21)S(C)(=O)=O [Example 508]	> 1	< 20	> 1	
CN(c1ccccc1Cn1ccc2cnc(Nc3ccc4c(c3)CC(=O)N4)nc21)S(C)(=O)=O [Example 513]	> 1	< 20		IC50 (recombinant human FAK1): < 20 nM; IC50 (AURKB (Aurora B) enzyme): < 20 nM
CN(C)C1CN(c2ccc(Nc3ncc4ccn(Cc5cccnc5N(C)S(C)(=O)=O)c4n3)cc2F)C1 [Example 605]	> 1		> 1	
CN(c1ncccc1Cn1ccc2cnc(Nc3ccc(N4CCN(C5CC5)CC4)cc3)nc21)S(C)(=O)=O [Example 659]	> 1		> 1	
CN(c1ncccc1Cn1ccc2cnc(Nc3ccc(-c4cc[nH]c(=O)c4)cc3)nc21)S(C)(=O)=O [Example 669]	> 1		> 1	
CNC(=O)c1ccccc1Nc1nc(Nc2ccc(N3CCOCC3)cc2OC)ncc1Cl [NVP-TAE226]				IC50 [2]: 760 nM; Inhibition of FAK autophosphorylation at Tyrosine397 and Akt phosphorylation at Serine473 [3]: observed in a dose-dependent manner; 4T1 murine breast tumor growth and metastasis to the lung ([4]; oral administration, dose-dependent): inhibited; body weight loss ([5]; MIA PaCa-2 model): no body weight loss; MIA PaCa-2 human pancreatic tumor growth [5]: efficiently inhibited
CN(c1ncccc1CNc1nc(Nc2ccc3c(c2)CC(=O)N3)ncc1C(F)(F)F)S(C)(=O)=O [PF-562,271, N-methyl-N-(3-(((2-((2-oxoindolin-5-yl)amino)-5-(trifluoromethyl)pyrimidin-4-yl)amino)methyl)pyridin-2-yl)methanesulfonamide]				antitumor efficacy [6]: good antitumor efficacy and tumor regression; toxicity [6]: no observed toxicity
CS(=O)(=O)c1cccc(CNc2nc(Nc3ccc4c(c3)CCC(=O)N4)ncc2C(F)(F)F)c1 [PF-573,228]				effect on cell proliferation and apoptosis [7]: minimal to no effect; chemotactic and haptotactic migration (cell migration): inhibited
CNC(=O)c1ccccc1Nc1cc(Nc2ccc(N3CCOCC3)cc2OC)ncc1C(F)(F)F [PND-1186]				pharmacokinetics (PK) [8]: promising; syngeneic murine 4T1 orthotopic breast carcinoma tumor growth and spontaneous metastasis to lungs ([4]; mouse, in vivo): significantly inhibited; duration of inhibition of tumor FAK Tyr-397 phosphorylation [9]: 12 h
CC(C)Cc1ccc([C@@H](C)C(=O)NS(C)(=O)=O)cc1 [Repertaxin]				CSC population [10]: selectively depleted
